Data on 20 compounds can be found in patent US8846670B2, “1,2,3,4-tetrahydro-pyrimido(1,2-a)pyrimidin-6-one derivatives, preparation thereof, and pharmaceutical use thereof” (priority 2009, dated 2014).

The subject of experiment [1] is AKT protein phosphorylated on serine 473 (P-AKT-S473) in PC3 human prostate carcinoma line. As to the kind of experiment: Study of pAKT expression in PC3 human prostate carcinoma cells measured by the MSD Multi-spot Biomarker Detection technique (Test B). It is filed as cell-based. The conditions noted are these: MSD sandwich immunoassay, 1 to 2 h incubation, absolute IC50, mean of 2 experiments. As to the method:
The inhibitory activity of the molecules on AKT phosphorylation is measured either by western blotting using the technique described below, or by the MSD Multi-spot Biomarker detection technique from Meso Scale Discovery also described below.
Study of pAKT Expression in PC3Human Prostate Carcinoma Cells Measured by the MSD Multi-Spot Biomarker Detection Technique from Meso Scale Discovery (Test B):
The primary antibody specific for P-AKT-S473 (Kit #K151CAD) is coated onto an electrode in each well of the 96-well plates of the MSD kit: after the addition of a protein lysate to each well, the signal is visualised by adding a secondary detection antibody labelled with an electrochemiluminescent compound. The procedure followed is that described in the kit.
On day 2, the cells are incubated in the presence or absence of the test products for 1 to 2 h at 37° C. in the presence of 5% of CO2. The molecules, diluted in dimethyl sulphoxide (DMSO Sigma #D2650), are added from a 20-times concentrated stock solution, the final percentage of DMSO being 0.1%.
After this incubation, the cells are lysed for the preparation of the proteins. […] At this stage, the plates containing the lysates can be frozen at −20° C. or at −80° C.
The wells of the 96-well plates of the MSD kit are saturated for 1 h at ambient temperature with the blocking solution of the MSD kit. Four washes are carried out with 150 μl of Tris Wash Buffer of the MSD kit. The lysates previously prepared are transferred into the 96-well multi-spot plates of the MSD kit and incubated for 1 h at ambient temperature, with shaking. Four washes are carried out with 150 μl of Tris Wash Buffer of the MSD kit. 25 μl of the MSD sulfo-tag detection antibody solution are added to the wells and incubated for 1 h at ambient temperature, with shaking. Four washes are carried out with 150 μl of Tris Wash Buffer of the MSD kit. 150 μl of Read Buffer of the MSD kit are added to the wells and the plates are read immediately on the S12400 instrument from Meso Scale Discovery.
The instrument measures a signal for each well. Wells without cells and containing the lysis buffer serve to determine the background noise that will be subtracted from all the measurements (min). The wells containing cells in the absence of product and in the presence of 0.1% DMSO are considered to be the 100% signal (max). The percentage inhibition is calculated for each concentration of test product according to the following formula: (1−((test−min)/(max−min)))×100.
2 independent experiments make it possible to calculate the mean of the IC50 values.

The test system of experiment [2] is translocation of the LC3 protein in Hela GFP-LC3 cells. As to the kind of experiment: Study of the translocation of the LC3 protein in Hela human cells, measured by image analysis cytometry (Test C, autophagy). Format: cell-based. The conditions noted are these: 2 h, Hela GFP-LC3 cells with LC3 granulations, EBSS + 10 μM hydroxychloroquine, absolute IC50. As for the experimental part:
The inhibitory activity of the molecules on autophagy is measured by the translocation of the LC3 protein from the cytoplasm to the autophagosomes. For this, Hela cells were transfected with a vector encoding the chimeric protein GFP-LC3. A Hela clone stably expressing the GFP-LC3 protein was selected.
Study of the Translocation of the LC3 Protein in Hela Human Cells, Measured by Image Analysis Cytometry (Test C):
On day 2, the cells are washed twice with EBSS (Sigma #E3024). The cells are then incubated in EBSS, 10 μM of hydroxychloroquine and test products for 2 h at 37° C. in the presence of 5% CO2. The molecules are diluted in dimethyl sulphoxide (DMSO Sigma #D2650), the final DMSO percentage being 0.1%.
After this incubation, the cells are fixed with 4% paraformaldehyde (Sigma #HT501128 4 L) for 10 min. […] The 96-well plates are then read with the iCyte image analysis cytometer (Compucyte).
Two independent experiments make it possible to calculate the mean of the IC50 values.

Where [3] appears, read: Homo sapiens, PC-3, P-AKT-S473 in PC3 cells.

Take `O=c1cc(N2CCOCC2)nc2n1CC[C@@H](C(F)(F)F)N2Cc1ccccc1Cl` [Example 22, (8S)-9-(2-chlorobenzyl)-2-(morpholin-4-yl)-8-(trifluoro-methyl)-6,7,8,9-tetrahydro-4H-pyrimido[1,2-a]pyrimidin-4-one]: the half-maximal inhibitory concentration (IC50) in experiment [1] (setting [3]) was 23 nM; in experiment [2] (Homo sapiens, HeLa), 785 nM.
On the same counts, the results for `O=c1cc(N2CCOCC2)nc2n1CC[C@@H](C(F)(F)F)N2c1ccc(Cl)cc1` [Example 36, (8S)-9-(4-chlorophenyl)-2-(morpholin-4-yl)-8-(trifluoro-methyl)-6,7,8,9-tetrahydro-4H-pyrimido[1,2-a]pyrimidin-4-one] are 18 nM and 157 nM.
The like results for `O=C(c1c(F)cccc1F)N1c2nc(N3CCOCC3)cc(=O)n2CC[C@H]1C(F)(F)F` [Example 43, (8S)-9-[(2,6-difluorophenyl)carbonyl]-2-(morpholin-4-yl)-8-(trifluoromethyl)-6,7,8,9-tetrahydro-4 H-pyrimido[1,2-a]pyrimidin-4-one] were, in that order, 16 nM and 986 nM.
On the same counts, the results for `O=c1cc(N2CCOCC2)nc2n1CC[C@@H](C(F)(F)F)N2CCc1cccc(F)c1` [Example 40, (8S)-9-[2-(3-fluorophenyl)ethyl]-2-(morpholin-4-yl)-8-(trifluoromethyl)-6,7,8,9-tetrahydro-4 H-pyrimido[1,2-a]pyrimidin-4-one] are 3 nM and 82 nM.
As for `O=C(c1ccc(F)cc1F)N1c2nc(N3CCOCC3)cc(=O)n2CC[C@H]1C(F)(F)F` [Example 44, (8S)-9-[(2,4-difluorophenyl)carbonyl]-2-(morpholin-4-yl)-8-(trifluoromethyl)-6,7,8,9-tetrahydro-4 H-pyrimido[1,2-a]pyrimidin-4-one], the IC50 in experiment [1] (setting [3]) is 108 nM; in experiment [2] (Homo sapiens, HeLa), over 1000 nM.
On the same counts, the results for `O=c1cc(N2CCOCC2)nc2n1CC[C@@H](C(F)(F)F)N2Cc1ccc(F)c(F)c1F` [Example 31, (8S)-2-(morpholin-4-yl)-9-(2,3,4-trifluorobenzyl)-8-(trifluoro-methyl)-6,7,8,9-tetrahydro-4H-pyrimido[1,2-a]pyrimidin-4-one] are 150 nM and 557 nM.
On the same counts, the results for `O=c1cc(N2CCOCC2)nc2n1CC[C@@H](C(F)(F)F)N2Cc1cc(F)cc(F)c1` [Example 29, (8S)-9-(3,5-difluorobenzyl)-2-(morpholin-4-yl)-8-(trifluoro-methyl)-6,7,8,9-tetrahydro-4H-pyrimido[1,2-a]pyrimidin-4-one] are 22 nM and over 1000 nM.
The like results for `COc1cccc(CCN2c3nc(N4CCOCC4)cc(=O)n3CC[C@H]2C(F)(F)F)c1` [Example 25] were, in that order, 7 nM and 38 nM.
Consider `O=c1cc(N2CCOCC2)nc2n1CC[C@@H](C(F)(F)F)N2Cc1cccc(F)c1` [Example 23, (8S)-9-(3-fluorobenzyl)-2-(morpholin-4-yl)-8-(trifluoromethyl)-6,7,8,9-tetrahydro-4H-pyrimido[1,2-a]pyrimidin-4-one], for which the IC50 in experiment [1] (setting [3]) is 24 nM; in experiment [2] (Homo sapiens, HeLa) it was 663 nM.
Take `CC(c1ccccc1F)N1c2nc(N3CCOCC3)cc(=O)n2CC[C@H]1C(F)(F)F` (single isomer, unassigned) [Example 38, (8S)-9-[(1R or 1S)-1-(2-fluorophenyl)ethyl]-2-(morpholin-4-yl)-8-(trifluoromethyl)-6,7,8,9-tetrahydro-4 H-pyrimido[1,2-a]pyrimidin-4-one]: the half-maximal inhibitory concentration (IC50) in experiment [1] (P-AKT-S473 in PC3 cells) was determined as 2 nM; in experiment [2] (Homo sapiens, HeLa) it was 167 nM.
`O=C(c1ccccc1F)N1c2nc(N3CCOCC3)cc(=O)n2CC[C@H]1C(F)(F)F` [Example 28, (8S)-9-[(2-fluorophenyl)carbonyl]-2-(morpholin-4-yl)-8-(trifluoromethyl)-6,7,8,9-tetrahydro-4H-pyrimido[1,2-a]pyrimidin-4-one]: the IC50 in experiment [1] (setting [3]) is 33 nM; in experiment [2] (Homo sapiens, HeLa), over 10000 nM.
The like results for `O=c1cc(N2CCOCC2)nc2n1CC[C@@H](C(F)(F)F)N2CCc1cccc(Cl)c1` [Example 46, (8S)-9-[2-(3-chlorophenyl)ethyl]-2-(morpholin-4-yl)-8-(trifluoromethyl)-6,7,8,9-tetrahydro-4 H-pyrimido[1,2-a]pyrimidin-4-one] were, in that order, 4 nM and 16 nM.
On the same counts, the results for `Cc1cccc(N2c3nc(N4CCOCC4)cc(=O)n3CC[C@H]2C(F)(F)F)c1` [Example 35, (8S)-9-(3-methylphenyl)-2-(morpholin-4-yl)-8-(trifluoro-methyl)-6,7,8,9-tetrahydro-4H-pyrimido[1,2-a]pyrimidin-4-one] are 20 nM and 650 nM.
The like results for `CC(c1ccc(F)cc1)N1c2nc(N3CCOCC3)cc(=O)n2CC[C@H]1C(F)(F)F` (single isomer, unassigned) [Example 33, (8S)-9-[(1R or 1S)-1-(4-fluorophenyl)ethyl]-2-(morpholin-4-yl)-8-(trifluoromethyl)-6,7,8,9-tetrahydro-4H-pyrimido[1,2-a]pyrimidin-4-one] were, in that order, 24 nM and 221 nM.
As to `CC(c1ccccc1F)N1c2nc(N3CCOCC3)cc(=O)n2CC[C@H]1C(F)(F)F` (single isomer, unassigned) [Example 39, (8S)-9-[(1R or 1S)-1-(2-fluorophenyl)ethyl]-2-(morpholin-4-yl)-8-(trifluoromethyl)-6,7,8,9-tetrahydro-4 H-pyrimido[1,2-a]pyrimidin-4-one], the 50% inhibitory concentration (IC50) in experiment [1] (P-AKT-S473 in PC3 cells) worked out at 5 nM; in experiment [2], 237 nM.
Consider `O=C(Cc1ccccc1)N1c2nc(N3CCOCC3)cc(=O)n2CC[C@H]1C(F)(F)F` [Example 45, (8S)-2-(morpholin-4-yl)-9-(phenylacetyl)-8-(trifluoromethyl)-6,7,8,9-tetrahydro-4 H-pyrimido[1,2-a]pyrimidin-4-one], for which the concentration for half-maximal inhibition (IC50) in experiment [1] (setting [3]) was 14 nM; in experiment [2] (Homo sapiens, HeLa), over 1000 nM.
The like results for `COc1ccc([C@H](O)CN2c3nc(N4CCOCC4)cc(=O)n3CC[C@H]2C(F)(F)F)cc1` [Example 7, (8S)-9-[(2S)-2-hydroxy-2-(4-methoxyphenyl)ethyl]-2-(morpholin-4-yl)-8-(trifluoromethyl)-6,7,8,9-tetrahydro-4H-pyrimido[1,2-a]pyrimidin-4-one] were, in that order, 1 nM and 5 nM.
On the same counts, the results for `COc1cccc(CN2c3nc(N4CCOCC4)cc(=O)n3CC[C@H]2C(F)(F)F)c1` [Example 26, (8S)-9-(3-methoxybenzyl)-2-(morpholin-4-yl)-8-(trifluoromethyl)-6,7,8,9-tetrahydro-4H-pyrimido[1,2-a]pyrimidin-4-one] are 18 nM and 270 nM.
Take `O=c1cc(N2CCOCC2)nc2n1CC[C@@H](C(F)(F)F)N2Cc1csc2ccc(Cl)cc12` [Example 32, (8S)-9-[(5-chloro-1-benzothiophen-3-yl)methyl]-2-(morpholin-4-yl)-8-(trifluoromethyl)-6,7,8,9-tetrahydro-4H-pyrimido[1,2-a]pyrimidin-4-one]: the IC50 in experiment [1] (setting [3]) came out at 33 nM; in experiment [2] (Homo sapiens, HeLa), 780 nM.
The like results for `Cc1ccc(N2c3nc(N4CCOCC4)cc(=O)n3CC[C@H]2C(F)(F)F)cc1` [Example 21, (8S)-9-(4-methylphenyl)-2-(morpholin-4-yl)-8-(trifluoro-methyl)-6,7,8,9-tetrahydro-4H-pyrimido[1,2-a]pyrimidin-4-one] were, in that order, 24 nM and 157 nM.
